Laboratory results: patent US3957788A (priority 1974, dated 1976)
Where two headings read alike, the source gives them in different places.

Experiments:
male mice of ddN strain = experiment: animal or person; format: in vivo; settings: Mus musculus, read-out: D'Amour-Smith method, analgesic ED50
[1] = test system: female mice of ddN strain; settings: mouse, in vivo
[2] = test system: male rats of Wistar strain; experiment: animal or person; format: in vivo; settings: Rattus norvegicus, po, read-out: Haffner method, analgesic ED50

SMILES: Cc1c(N(C)C)c(=O)n(-c2ccccc2)n1C [compound 5, Aminopyrine]
- ED50 (male mice of ddN strain; po): ≥ 640 mg/kg
- ED50 (male mice of ddN strain; sc): 233 mg/kg
- Phenylquinone method (analgesic activity) [1]: 53.3
- ED50 [2]: > 2560 mg/kg
